Read-outs that look alike come from different tables or passages of the source.
Legend:
Type in all cases: biochemical
human cathepsin S (CatS) = target: T1, human cathepsin S (CatS) (Homo sapiens, UniProt P25774); experiment: Fluorometric inhibition assay, cathepsin S; details: for kinact: read-out: kinact, CatS
T1 construct: purchased Sigma Aldrich

rhodesain = rhodesain (Trypanosoma brucei rhodesiense, UniProt Q95PM0); experiment: Fluorometric inhibition assay, rhodesain; details: for kinact: read-out: kinact, Rhodesain
Sequence of rhodesain (Q95PM0 entry or part of it): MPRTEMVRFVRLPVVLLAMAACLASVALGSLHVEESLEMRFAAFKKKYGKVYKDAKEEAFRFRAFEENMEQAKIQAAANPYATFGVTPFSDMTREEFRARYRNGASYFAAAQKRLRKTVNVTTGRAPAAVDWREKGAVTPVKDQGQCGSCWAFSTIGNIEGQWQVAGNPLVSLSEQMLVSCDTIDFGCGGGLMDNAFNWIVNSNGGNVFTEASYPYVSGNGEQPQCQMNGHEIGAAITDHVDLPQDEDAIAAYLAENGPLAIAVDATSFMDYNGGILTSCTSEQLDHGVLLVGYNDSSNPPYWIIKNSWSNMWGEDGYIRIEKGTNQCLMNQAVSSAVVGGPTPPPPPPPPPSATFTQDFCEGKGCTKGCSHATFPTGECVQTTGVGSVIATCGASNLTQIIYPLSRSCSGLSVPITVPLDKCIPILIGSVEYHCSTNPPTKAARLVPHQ

[1] = target: SARS-CoV-2 main protease (M^pro) (Severe acute respiratory syndrome coronavirus 2, UniProt P0DTD1); experiment: Fluorometric (FRET) inhibition assay, SARS-CoV-2 M^pro; details: for activity against M^pro, in words: initial screen at 20 µM, cut-off 80% inhibition
[2] = Table S1; a) calculated from IC50 with Cheng–Prusoff, irreversible inhibitors from kobs fits, n.a. = not active at 20 µM, * unstable towards DTT, read-out: Ki, CatS
[3] = Table S1; a) calculated from IC50 with Cheng–Prusoff, irreversible inhibitors from kobs fits, n.a. = not active at 20 µM, read-out: Ki, Rhodesain
[4] = Table S1, irreversible inhibitors

T1 sequence (P25774 115-331): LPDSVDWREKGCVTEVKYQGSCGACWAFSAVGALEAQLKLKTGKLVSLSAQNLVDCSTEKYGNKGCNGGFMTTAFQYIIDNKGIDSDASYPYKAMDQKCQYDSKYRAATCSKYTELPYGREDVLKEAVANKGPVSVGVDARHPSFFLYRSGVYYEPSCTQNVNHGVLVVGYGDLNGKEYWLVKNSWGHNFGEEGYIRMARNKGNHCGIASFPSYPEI

`O=C(N[C@@H](Cc1ccccc1)C(=O)N[C@H](/C=C/S(=O)(=O)c1ccccc1)CCc1ccccc1)OCc1ccccc1` [compound 16] was tested, and the Ki (human cathepsin S (CatS); pKi, Cathepsin S inhibition) was 1 nM, the kinact (human cathepsin S (CatS)) was 0.0037 ± 0.0006 s⁻¹ and the Ki (rhodesain; Ki, Rhodesain) was 20 ± 2 nM. It also gave a Ki (rhodesain; pKi, Rhodesain inhibition) of 20 nM and a kinact (rhodesain) of 0.005 ± 0.0001 s⁻¹.
Work on `O=C(N[C@@H](Cc1ccccc1)C(=O)N[C@H](/C=C(\F)S(=O)(=O)c1ccccc1)CCc1ccccc1)OCc1ccccc1` [compound 17] yielded a Ki (human cathepsin S (CatS); Ki, CatS) of 966 ± 104 nM, a Ki (human cathepsin S (CatS); pKi, Cathepsin S inhibition) of 1000 nM and a Ki (rhodesain; Ki, Rhodesain) of 3570 ± 437 nM.
In the case of `CC(C)C[C@@H](/C=C/S(=O)(=O)c1ccccc1)NC(=O)[C@H](Cc1ccccc1)NC(=O)c1cnccn1` [compound 58], the Ki (human cathepsin S (CatS); Ki, CatS) is reported as 126 ± 71 nM, the kinact (human cathepsin S (CatS)) is reported as 0.013 ± 0.002 s⁻¹ and the Ki (rhodesain; Ki, Rhodesain) is reported as 331 ± 41 nM. For the same compound, the kinact (rhodesain) was 0.019 ± 0.001 s⁻¹.
For `COc1cccc2[nH]c(C(=O)N[C@@H](CC(C)C)C(=O)N[C@@H](C[C@@H]3CCNC3=O)C(=O)c3nc4ccccc4s3)cc12` [compound 90], the “activity against M^pro, in words” value [1] was “displayed inhibitory activity”.
For `O=C(N[C@@H](Cc1ccccc1)C(=O)N[C@@H](CCc1ccccc1)C(=O)c1nc2ccccc2s1)OCc1ccccc1` [compound 18], the “activity against rhodesain, in words” value (rhodesain) was “inactive at 20 µM”.
In the case of `N#C[C@H](CCc1ccccc1)NC(=O)[C@H](Cc1ccccc1)NC(=O)OCc1ccccc1` [compound 25], the Ki (human cathepsin S (CatS); Ki, CatS) is reported as 136 ± 12 nM and the Ki (rhodesain; Ki, Rhodesain) is reported as 88 ± 17.4 nM.
In the case of `COc1cccc2[nH]c(C(=O)N[C@@H](CC(C)C)C(=O)N[C@H](C#N)C[C@@H]3CCNC3=O)cc12` [compound 84], the Ki (human cathepsin S (CatS); [2]) is reported as 104 ± 9 nM, the “activity against M^pro, in words” value [1] is reported as “displayed inhibitory activity” and the Ki (rhodesain; [3]) is reported as 42 ± 5 nM.
With `COc1cccc2[nH]c(C(=O)N[C@@H](CC(C)C)C(=O)N[C@H](/C=C(\F)S(=O)(=O)c3ccccc3)C[C@@H]3CCNC3=O)cc12` [compound 94] the Ki (human cathepsin S (CatS); [2]) was 1350 ± 90 nM, the Ki [1] was 517 ± 33 nM and the “activity against M^pro, in words” value [1] was “displayed inhibitory activity”. The Ki (rhodesain; [3]) was 217 ± 31 nM.
`COc1cccc2[nH]c(C(=O)N[C@@H](CC(C)C)C(=O)N[C@H](/C=C/S(=O)(=O)c3ccccc3)C[C@@H]3CCNC3=O)cc12` [compound 93] showed a Ki (human cathepsin S (CatS); [2]) of 330 ± 65 nM, a kinact (human cathepsin S (CatS); [4]) of 0.0087 ± 0.0001 s⁻¹ and a Ki (human cathepsin S (CatS); calculated from Ki, –log10(Ki/M), read-out: pKi, Cathepsin S inhibition (converted)) of 398 nM. The Ki [1] was 3530 ± 1110 nM, the “activity against M^pro, in words” value [1] was “displayed inhibitory activity” and the kinact ([1]; read-out: kinact, MPro) was 0.0137 ± 0.0061 s⁻¹. For the same compound, the Ki (rhodesain; [3]) was 2000 ± 604 nM and the kinact (rhodesain; [4]) was 0.029 ± 0.008 s⁻¹.
`N#CC(COCc1ccccc1)NC(=O)C(CC1CCCCC1)NC(=O)N1CCOCC1` (centres unmarked) [compound 30] showed a Ki (rhodesain; Ki, Rhodesain) of 21 ± 2 nM.
For `CC(=O)NCC(=O)NC(C(=O)N[C@@H](C)C(=O)N[C@H](/C=C/S(=O)(=O)c1ccccc1)CCCNC(=N)N)[C@H](C)O` (some centres unmarked) [compound 106], the “activity against CatS, in words” value (human cathepsin S (CatS)) was “not active at 20 µM” and the “activity against rhodesain, in words” value (rhodesain) was “inactive”.
`CC(=O)NCC(=O)NC(C(=O)N[C@@H](C)C(=O)N[C@H](/C=C(\F)S(=O)(=O)c1ccccc1)CCCNC(=N)N)[C@H](C)O` (some centres unmarked) [compound 107] was tested, and the “activity against CatS, in words” value (human cathepsin S (CatS)) was “not active at 20 µM” and the “activity against rhodesain, in words” value (rhodesain) was “inactive”.
`O=C(N[C@@H](Cc1ccccc1)C(=O)N[C@@H](CCc1ccccc1)C(=O)N[C@H]1CN(c2ccccc2)C1=O)OCc1ccccc1` [compound 24] was tested, and the “activity against rhodesain, in words” value (rhodesain) was “inactive at 20 µM”.
For `CCOC(=O)/C=C/C(=O)[C@H](C[C@@H]1CCNC1=O)NC(=O)[C@H](CC(C)C)NC(=O)c1cc2c(OC)cccc2[nH]1` [compound 81], the “activity against CatS, in words” value (human cathepsin S (CatS); initial screen at 20 µM, cut-off 80% inhibition) was “essentially inactive”, the Ki (rhodesain; [3]) was 99 ± 24 nM and the kinact (rhodesain; [4]) was 0.006 ± 0.0009 s⁻¹.
For `CCOC(=O)C=CC(=O)C(COCc1ccccc1)NC(=O)C(CC1CCCCC1)NC(=O)N1CCOCC1` (centres unmarked) [compound 40], the Ki (human cathepsin S (CatS); Ki, CatS) was 22 ± 4 nM, the kinact (human cathepsin S (CatS)) was 0.0023 ± 7e-05 s⁻¹ and the Ki (rhodesain; Ki, Rhodesain) was 35 ± 9 nM. For the same compound, the kinact (rhodesain) was 0.003 ± 0.0001 s⁻¹.
`O=C(NC(C=C(F)S(=O)(=O)c1ccccc1)COCc1ccccc1)C(CC1CCCCC1)NC(=O)N1CCOCC1` (centres unmarked) [compound 36] showed a Ki (human cathepsin S (CatS); Ki, CatS) of 3210 ± 612 nM.
In the case of `COc1cccc2[nH]c(C(=O)N[C@@H](CC(C)C)C(=O)N[C@@H](C[C@@H]3CCNC3=O)C(=O)NC3CN(c4ccccc4)C3=O)cc12` (some centres unmarked) [compound 96], the “activity against M^pro, in words” value [1] is reported as “inactive at 20 µM”.
`COc1cccc2[nH]c(C(=O)N[C@@H](CC(C)C)C(=O)N[C@H](/C=C/[N+](=O)[O-])C[C@@H]3CCNC3=O)cc12` [compound 88] was tested, and the Ki (human cathepsin S (CatS); [2]) was 388 ± 277 nM, the Ki [1] was 2200 ± 184 nM and the “activity against M^pro, in words” value [1] was “displayed inhibitory activity”. For the same compound, the Ki (rhodesain; calculated from Ki, –log10(Ki/M), read-out: pKi, Rhodesain inhibition (converted)) was 2 nM.
For `O=C(NC1CN(c2ccccc2)C1=O)C(COCc1ccccc1)NC(=O)C(CC1CCCCC1)NC(=O)N1CCOCC1` (centres unmarked) [compound 45], the Ki (human cathepsin S (CatS); Ki, CatS) was 860 ± 130 nM and the kinact (human cathepsin S (CatS)) was 0.00046 ± 2e-05 s⁻¹.
Compound `O=C(NC(C=CS(=O)(=O)c1ccccc1)COCc1ccccc1)C(CC1CCCCC1)NC(=O)N1CCOCC1` (centres unmarked) [compound 35] has a Ki (human cathepsin S (CatS); pKi, Cathepsin S inhibition) of 3.16 nM, a kinact (human cathepsin S (CatS)) of 0.0202 ± 0.0006 s⁻¹ and a Ki (rhodesain; Ki, Rhodesain) of 22 ± 2 nM. For the same compound, the kinact (rhodesain) was 0.006 ± 0.0004 s⁻¹.
`CCOC(=O)/C=C/C(=O)[C@H](CCc1ccccc1)NC(=O)[C@H](Cc1ccccc1)NC(=O)OCc1ccccc1` [compound 22] was tested, and the Ki (human cathepsin S (CatS); Ki, CatS) was 18 ± 3 nM, the kinact (human cathepsin S (CatS)) was 0.0022 ± 0.0001 s⁻¹ and the Ki (rhodesain; Ki, Rhodesain) was 79 ± 7 nM. The kinact (rhodesain) was 0.008 ± 0.001 s⁻¹.
`O=C(N[C@@H](Cc1ccccc1)C(=O)N[C@H](/C=C/[N+](=O)[O-])CCc1ccccc1)OCc1ccccc1` [compound 13] showed a Ki (human cathepsin S (CatS); Ki, CatS) of 201 ± 93 nM and a Ki (rhodesain; Ki, Rhodesain) of 0.06 ± 0.006 nM.
In the case of `O=C(NC(COCc1ccccc1)C(=O)c1nc2ccccc2s1)C(CC1CCCCC1)NC(=O)N1CCOCC1` (centres unmarked) [compound 42], the Ki (human cathepsin S (CatS); Ki, CatS) is reported as 233 ± 24 nM, the Ki (human cathepsin S (CatS); pKi, Cathepsin S inhibition) is reported as 316 nM and the “activity against rhodesain, in words” value (rhodesain) is reported as “submicromolar affinity”. It also gave a Ki (rhodesain; Ki, Rhodesain) of 324 ± 89 nM.
With `O=C(NC(C=C[N+](=O)[O-])COCc1ccccc1)C(CC1CCCCC1)NC(=O)N1CCOCC1` (centres unmarked) [compound 49] the Ki (human cathepsin S (CatS); Ki, CatS) was 12 ± 1 nM and the Ki (rhodesain; pKi, Rhodesain inhibition) was 2 nM.

From PMC10138721, “Investigation of the Compatibility between Warheads and Peptidomimetic Sequences of Protease Inhibitors—A Comprehensive Reactivity and Selectivity Study” (International Journal of Molecular Sciences, 2023)
